Assay results reported in PMC9604400, “Synthesis, Anticancer and Antitubercular Properties of New Chalcones and Their Nitrogen-Containing Five-Membered Heterocyclic Hybrids Bearing Sulfonamide Moiety” (International Journal of Molecular Sciences, 2022).
Values after ≈ are worked out from the molar mass of the structure shown. Marks after values point to notes of the source that are not given here.

Key:
Assay in all cases: microbe, parasite or virus in culture
[1] = tested on: M. tuberculosis Orphan strain; type: cell-based; details: Mycobacterium tuberculosis
[2] = tested on: M. tuberculosis Beijing; type: cell-based; details: Mycobacterium tuberculosis
[3] = tested on: M. tuberculosis ATCC 35822; type: cell-based; details: Mycobacterium tuberculosis, ATCC35822
[4] = tested on: M. tuberculosis LAM9 SIT 42; type: cell-based, Mycobacterium tuberculosis
[5] = tested on: M. tuberculosis ATCC 35838; type: cell-based, Mycobacterium tuberculosis
[6] = tested on: M. tuberculosis Haarlem; type: cell-based; details: Mycobacterium tuberculosis
[7] = Mycobacterium tuberculosis, LAM9SIT42, c. M. tuberculosis LAM9 SIT 42
[8] = Mycobacterium tuberculosis, ATCC35838, f. M. tuberculosis ATCC 35838 (rifampicin-resistant)
[9] = f. M. tuberculosis ATCC 35838 (rifampicin-resistant)

**Q.** How did the MIC [1] turn out when `COc1cc(OC)c(S(N)(=O)=O)cc1C(=O)C=Cc1ccccc1` [Compound 17a, 5-Cinnamoyl-2,4-dimethoxybenzenesulfonamide] was run?
**A.** 29 µM (≈ 10.1 µg/mL)

**Q.** And the MIC [2]?
**A.** 29 µM (≈ 10.1 µg/mL)

**Q.** What about the MIC [3] of the same molecule?
**A.** > 29 µM

**Q.** And the MIC [4, 7]?
**A.** > 29 µM

**Q.** And the MIC [5, 8]?
**A.** 29 µM (≈ 10.1 µg/mL)

**Q.** And the MIC [6]?
**A.** > 29 µM

**Q.** For `COc1cc(OC)c(S(N)(=O)=O)cc1C(=O)/C=C/c1ccc2c(c1)OCO2` [Compound 17f, (E)-5-(3-(Benzo[d][1,3]dioxol-5-yl)acryloyl)-2,4-dimethoxybenzenesulfonamide], which MIC [1] is on record?
**A.** > 2 µM

**Q.** And the MIC [2]?
**A.** > 2 µM

**Q.** And the MIC [3]?
**A.** > 25 µM

**Q.** What about the MIC [4, 7] of the same molecule?
**A.** > 2 µM

**Q.** What about the MIC [5, 8] of the same molecule?
**A.** > 25 µM

**Q.** What about the MIC [6] of the same molecule?
**A.** > 2 µM

**Q.** For `COc1ccc(C(=O)C=Cc2ccccc2)cc1S(=O)(=O)NNC(=O)c1ccncc1` [Compound 19a, 5-Cinnamoyl-N’-isonicotinoyl-2-methoxybenzenesulfonohydrazide], which MIC [1] is on record?
**A.** > 23 µM

**Q.** What about the MIC [2] of the same molecule?
**A.** 23 µM (≈ 10.1 µg/mL)

**Q.** And the MIC [3]?
**A.** > 23 µM

**Q.** What about the MIC [4, 7] of the same molecule?
**A.** 23 µM (≈ 10.1 µg/mL)

**Q.** And the MIC [5, 8]?
**A.** < 12 µM

**Q.** And the MIC [5, 9]?
**A.** <11 µM

**Q.** And the MIC [6]?
**A.** > 23 µM

**Q.** Which results are given for `COc1ccc(/C=C/C(=O)c2ccc(OC)c(S(=O)(=O)NNC(=O)c3ccncc3)c2)cc1` [Compound 19d, (E)-N’-Isonicotinoyl-2-methoxy-5-(3-(4-methoxyphenyl)acryloyl)benzenesulfonohydrazide]?
**A.** MIC [1]: 21 µM (≈ 9.82 µg/mL); MIC [2]: 21 µM (≈ 9.82 µg/mL); MIC [3]: > 21 µM; MIC [4, 7]: 21 µM (≈ 9.82 µg/mL); MIC [5, 8]: 21 µM (≈ 9.82 µg/mL); MIC [6]: > 21 µM

**Q.** With `COc1cc(OC)c(S(=O)(=O)NNC(=O)c2ccncc2)cc1C(=O)C=Cc1ccccc1` [Compound 20a, 5-Cinnamoyl-N’-isonicotinoyl-2,4-dimethoxybenzenesulfonohydrazide] as the molecule, how does the MIC [1] read?
**A.** > 21 µM

**Q.** What about the MIC [2] of the same molecule?
**A.** < 11 µM

**Q.** What about the MIC [3] of the same molecule?
**A.** > 21 µM

**Q.** And the MIC [4, 7]?
**A.** 21 µM (≈ 9.82 µg/mL)

**Q.** What about the MIC [5, 8] of the same molecule?
**A.** < 12 µM

**Q.** And the MIC [5, 9]?
**A.** <11 * µM

**Q.** What about the MIC [6] of the same molecule?
**A.** > 21 µM

**Q.** Which MIC [1] does the source give for `COc1ccc(/C=C/C(=O)c2cc(S(=O)(=O)NNC(=O)c3ccncc3)c(OC)cc2OC)cc1` [Compound 20d, (E)-N’-Isonicotinoyl-2,4-dimethoxy-5-(3-(4-methoxyphenyl)acryloyl)benzenesulfonohydrazide] here?
**A.** > 20 µM

**Q.** And the MIC [2]?
**A.** > 20 µM

**Q.** And the MIC [3]?
**A.** > 20 µM

**Q.** And the MIC [4, 7]?
**A.** > 20 µM

**Q.** What about the MIC [5, 8] of the same molecule?
**A.** 20 µM (≈ 9.95 µg/mL)

**Q.** And the MIC [6]?
**A.** > 20 µM

**Q.** Which MIC [1] does the source give for `COc1cc(OC)c(S(=O)(=O)NNC(=O)c2ccncc2)cc1C(=O)/C=C/c1cc(OC)c(OC)c(OC)c1` [Compound 20e, (E)-N’-Isonicotinoyl-2,4-dimethoxy-5-(3-(3,4,5-trimethoxyphenyl)acryloyl)benzenesulfonohydrazide] here?
**A.** > 18 µM

**Q.** What about the MIC [2] of the same molecule?
**A.** < 9 µM

**Q.** What about the MIC [3] of the same molecule?
**A.** > 18 µM

**Q.** And the MIC [4, 7]?
**A.** 8.97 µM (≈ 5 µg/mL)

**Q.** And the MIC ([4]; c. M. tuberculosis LAM9 SIT 42)?
**A.** <9.0 * µM

**Q.** What about the MIC [5, 8] of the same molecule?
**A.** < 12 µM

**Q.** And the MIC [5, 9]?
**A.** <9.0 * µM

**Q.** And the MIC [6]?
**A.** > 18 µM

**Q.** For `COc1cc(OC)c(S(=O)(=O)NNC(=O)c2ccncc2)cc1C(=O)/C=C/c1ccc2c(c1)OCO2` [Compound 20f, (E)-5-(3-(Benzo[d][1,3]dioxol-5-yl)acryloyl)-N’-isonicotinoyl-2,4-dimethoxybenzenesulfonohydrazide], which MIC [1] is on record?
**A.** > 20 µM

**Q.** And the MIC [2]?
**A.** 20 µM (≈ 10.2 µg/mL)

**Q.** And the MIC [3]?
**A.** > 20 µM

**Q.** What about the MIC [4, 7] of the same molecule?
**A.** 9.77 µM (≈ 5 µg/mL)

**Q.** What about the MIC ([4]; c. M. tuberculosis LAM9 SIT 42) of the same molecule?
**A.** <10 µM

**Q.** What about the MIC [5, 8] of the same molecule?
**A.** < 12 µM

**Q.** And the MIC [5, 9]?
**A.** <10 * µM

**Q.** And the MIC [6]?
**A.** > 20 µM

**Q.** What does the source list for `C[C@H]1COc2c(N3CCN(C)CC3)c(F)cc3c(=O)c(C(=O)O)cn1c23` [Levofloxacin, levofloxacin, reference compound]?
**A.** MIC [1]: 2.8 µM (≈ 1.01 µg/mL); MIC [2]: 2.8 µM (≈ 1.01 µg/mL); MIC [3]: 2.8 µM (≈ 1.01 µg/mL); MIC [4, 7]: 2.8 µM (≈ 1.01 µg/mL); MIC [5, 8]: 2.8 µM (≈ 1.01 µg/mL); MIC [6]: 2.8 µM (≈ 1.01 µg/mL)
